In patent US4360665A, “4"-N-(Substituted)-apramycin antibiotic derivatives and intermediates therefor” (Eli Lilly and Company, priority 1981, dated 1982):
Values after ≈ are worked out from the molar mass of the structure shown. Like-named read-outs stand apart in the source and are kept apart here.

Tests used:
Assay in all cases: MIC by standard agar dilution test
Format in all cases: cell-based
[1] = system: Citrobacter freundii CF17; conditions: Table 1, read-out: Minimum Inhibitory Concentration
Text: (§1) The antibacterial activity of the antibiotic compounds of this invention is illustrated by the following in vitro and in vivo test data obtained with representative compounds. In Tables I and II, the minimum inhibitory concentration (MIC) for representative compounds against a wide range of gram-positive and gram-negative bacteria are presented. The MIC values were obtained by the standard agar dilution test.

[2] = system: Streptococcus group D X66; conditions: DX66, Table 1, read-out: Minimum Inhibitory Concentration
Text: as §1

[3] = system: Klebsiella pneumoniae KAE; conditions: Table 1, read-out: Minimum Inhibitory Concentration
Text: as §1

Serratia marcescens SE2 = conditions: Table II, read-out: Minimum Inhibitory Concentration
Text: as §1

[4] = system: Pseudomonas aeruginosa X528
Text: as §1

[5] = system: Enterobacter cloacae EN453; conditions: Table II, read-out: Minimum Inhibitory Concentration
Text: as §1

[6] = system: Streptococcus pyogenes C203; conditions: Table 1, read-out: Minimum Inhibitory Concentration
Text: as §1

[7] = system: Streptococcus group D 9960; conditions: D9960, Table 1, read-out: Minimum Inhibitory Concentration
Text: as §1

[8] = system: Klebsiella pneumoniae X26; conditions: Table 1, read-out: Minimum Inhibitory Concentration
Text: as §1

[9] = system: Pseudomonas aeruginosa Ps18; conditions: Pseudomonas aeruginosa, PS18, read-out: Minimum Inhibitory Concentration
Text: as §1

[10] = system: Pseudomonas aeruginosa X239
Text: as §1

[11] = system: Enterobacter aerogenes C32; conditions: Klebsiella aerogenes, Table 1, read-out: Minimum Inhibitory Concentration
Text: as §1

[12] = system: Pseudomonas aeruginosa Ps25; conditions: Table II, read-out: Minimum Inhibitory Concentration
Text: as §1

[13] = system: Enterobacter cloacae EB24
Text: as §1

[14] = system: Haemophilus influenzae R252; conditions: Haemophilus influenzae, R252, read-out: Minimum Inhibitory Concentration
Text: as §1

[15] = system: Pseudomonas aeruginosa PI23; conditions: Table II, read-out: Minimum Inhibitory Concentration
Text: as §1

[16] = system: Pseudomonas aeruginosa Ps9; conditions: Table II, read-out: Minimum Inhibitory Concentration
Text: as §1

[17] = system: Haemophilus influenzae HOLT; conditions: Table 1, read-out: Minimum Inhibitory Concentration
Text: as §1

[18] = system: Klebsiella pneumoniae KL2; conditions: Table II, read-out: Minimum Inhibitory Concentration
Text: as §1

Escherichia coli TEM = conditions: read-out: Minimum Inhibitory Concentration
Text: as §1

[19] = system: Salmonella typhimurium 1335; conditions: Salmonella enterica, Table 1, read-out: Minimum Inhibitory Concentration
Text: as §1

[20] = system: Staphylococcus aureus X400; conditions: Table 1, read-out: Minimum Inhibitory Concentration
Text: as §1

[21] = system: Enterobacter aerogenes EB6; conditions: Klebsiella aerogenes
Text: as §1

[22] = system: Bordetella bronchiseptica 16; conditions: Table 1; Bordetella bronchiseptica 16; agar dilution; read-out: Minimum Inhibitory Concentration
Text: as §1

Proteus morganii PR1 = conditions: Morganella morganii, Table II, read-out: Minimum Inhibitory Concentration
Text: as §1

Shigella sonnei N9 = conditions: Table 1, read-out: Minimum Inhibitory Concentration
Text: as §1

Escherichia coli EC14 = conditions: Table 1, read-out: Minimum Inhibitory Concentration
Text: as §1

[23] = system: Pseudomonas aeruginosa 4276; conditions: Table II, read-out: Minimum Inhibitory Concentration
Text: as §1

Proteus inconstans PR33 = conditions: Providencia alcalifaciens, Table 1, read-out: Minimum Inhibitory Concentration
Text: as §1

[24] = system: Staphylococcus aureus X1.1; conditions: Table 1, read-out: Minimum Inhibitory Concentration
Text: as §1

[25] = system: Enterobacter aerogenes X68; conditions: Klebsiella aerogenes, Table 1, read-out: Minimum Inhibitory Concentration
Text: as §1

Proteus rettgeri PR2 = conditions: Providencia rettgeri, Table II, read-out: Minimum Inhibitory Concentration
Text: as §1

Proteus morganii PR15 = conditions: Morganella morganii, Table 1, read-out: Minimum Inhibitory Concentration
Text: as §1

Proteus rettgeri C24 = conditions: Providencia rettgeri, Table 1, read-out: Minimum Inhibitory Concentration
Text: as §1

[26] = system: Staphylococcus epidermidis EPI2; conditions: Table 1, read-out: Minimum Inhibitory Concentration
Text: as §1

[27] = system: Pseudomonas aeruginosa SF-2; conditions: SF2, Table II, read-out: Minimum Inhibitory Concentration
Text: as §1

[28] = system: Pseudomonas aeruginosa Ps15; conditions: Table II, read-out: Minimum Inhibitory Concentration
Text: as §1

[29] = system: Staphylococcus epidermidis EPI1; conditions: Table 1, read-out: Minimum Inhibitory Concentration
Text: as §1

Escherichia coli N10 = conditions: Table 1, read-out: Minimum Inhibitory Concentration
Text: as §1

Proteus rettgeri PR7 = conditions: Providencia rettgeri, Table 1, read-out: Minimum Inhibitory Concentration
Text: as §1

[30] = system: Staphylococcus aureus V41; conditions: Table 1, read-out: Minimum Inhibitory Concentration
Text: as §1

Enterobacter cloacae EB5 = conditions: Table 1, read-out: Minimum Inhibitory Concentration
Text: as §1

[31] = system: Enterobacter cloacae 265A; conditions: Table 1, read-out: Minimum Inhibitory Concentration
Text: as §1

[32] = system: Streptococcus pneumoniae Park 1; conditions: PARK1, Table 1, read-out: Minimum Inhibitory Concentration
Text: as §1

Proteus inconstans PV25 = conditions: Providencia alcalifaciens, Table II, read-out: Minimum Inhibitory Concentration
Text: as §1

Serratia marcescens SE3 = system: Serratia marcescens SE3
Text: as §1

[33] = system: Salmonella heidelberg X514; conditions: Salmonella enterica, Table 1, read-out: Minimum Inhibitory Concentration
Text: as §1

Serratia marcescens X99 = system: Serratia marcescens X99
Text: as §1

[34] = system: Enterobacter aerogenes EB17; conditions: Klebsiella aerogenes, Table 1, read-out: Minimum Inhibitory Concentration
Text: as §1

[35] = system: Staphylococcus aureus S13E; conditions: read-out: Minimum Inhibitory Concentration
Text: as §1

[36] = system: Pseudomonas aeruginosa X48; conditions: Table II, read-out: Minimum Inhibitory Concentration
Text: as §1

[37] = X239, Table II, read-out: Minimum Inhibitory Concentration
[38] = SE3, Table II, read-out: Minimum Inhibitory Concentration
[39] = X99, Table II, read-out: Minimum Inhibitory Concentration

With `CCN[C@H]1[C@H](O)[C@@H](O)[C@@H](O[C@H]2O[C@H]3C[C@@H](N)[C@@H](O[C@H]4[C@H](O)[C@@H](O)[C@H](N)C[C@@H]4N)O[C@@H]3[C@H](O)[C@@H]2NC)O[C@@H]1CO` [Test Compound 2, 4"-N-Ethylapramycin] the MIC [1] was 16 µg/mL (≈ 28.2 µM), the MIC [2] was > 128 µg/mL and the MIC [3] was 8 µg/mL (≈ 14.1 µM). For the same molecule, the MIC (Serratia marcescens SE2) was 4 µg/mL (≈ 7.05 µM), the MIC ([4]; Table 1, read-out: Minimum Inhibitory Concentration) was 32 µg/mL (≈ 56.4 µM) and the “Minimum Inhibitory Concentration” value ([4]; Table II) was 32 µg/mL. The MIC [5] was 4 µg/mL (≈ 7.05 µM), the MIC [6] was 32 µg/mL (≈ 56.4 µM) and the MIC [7] was > 128 µg/mL. It also gave an MIC [8] of 8 µg/mL (≈ 14.1 µM), an MIC [9] of 4 µg/mL (≈ 7.05 µM) and an MIC ([10]; X239, Table 1, read-out: Minimum Inhibitory Concentration) of 16 µg/mL (≈ 28.2 µM). It also gave an MIC [10, 37] of 16 µg/mL (≈ 28.2 µM), an MIC [11] of 8 µg/mL (≈ 14.1 µM) and an MIC [12] of 16 µg/mL (≈ 28.2 µM). For the same molecule, the MIC ([13]; Table II, Enterobacter cloacae EB24, agar dilution, read-out: Minimum Inhibitory Concentration) was 4 µg/mL (≈ 7.05 µM), the MIC [14] was 1 µg/mL (≈ 1.76 µM) and the MIC [15] was > 128 µg/mL. For the same molecule, the MIC [16] was 64 µg/mL (≈ 113 µM), the MIC [17] was 2 µg/mL (≈ 3.52 µM) and the MIC [18] was 4 µg/mL (≈ 7.05 µM). For the same molecule, the MIC (Escherichia coli TEM) was 4 µg/mL (≈ 7.05 µM), the MIC [19] was 16 µg/mL (≈ 28.2 µM) and the MIC [20] was 32 µg/mL (≈ 56.4 µM). It also gave an MIC ([21]; EB6, read-out: Minimum Inhibitory Concentration) of 2 µg/mL (≈ 3.52 µM), an MIC [22] of 32 µg/mL (≈ 56.4 µM) and an MIC (Proteus morganii PR1) of 4 µg/mL (≈ 7.05 µM). It also gave an MIC (Shigella sonnei N9) of 16 µg/mL (≈ 28.2 µM), an MIC (Escherichia coli EC14) of 8 µg/mL (≈ 14.1 µM) and an MIC [23] of 8 µg/mL (≈ 14.1 µM). It also gave an MIC (Proteus inconstans PR33) of 4 µg/mL (≈ 7.05 µM), an MIC [24] of 8 µg/mL (≈ 14.1 µM) and an MIC [25] of 8 µg/mL (≈ 14.1 µM). For the same molecule, the MIC (Proteus rettgeri PR2) was 8 µg/mL (≈ 14.1 µM), the MIC (Proteus morganii PR15) was 16 µg/mL (≈ 28.2 µM) and the MIC (Proteus rettgeri C24) was 8 µg/mL (≈ 14.1 µM). It also gave an MIC [26] of 32 µg/mL (≈ 56.4 µM), an MIC [27] of 16 µg/mL (≈ 28.2 µM) and an MIC [28] of 16 µg/mL (≈ 28.2 µM). It also gave an MIC [29] of 8 µg/mL (≈ 14.1 µM), an MIC (Escherichia coli N10) of 16 µg/mL (≈ 28.2 µM) and an MIC (Proteus rettgeri PR7) of 8 µg/mL (≈ 14.1 µM). For the same molecule, the MIC [30] was 16 µg/mL (≈ 28.2 µM), the MIC (Enterobacter cloacae EB5) was 16 µg/mL (≈ 28.2 µM) and the MIC [31] was 8 µg/mL (≈ 14.1 µM). It also gave an MIC [32] of 32 µg/mL (≈ 56.4 µM), an MIC (Proteus inconstans PV25) of 4 µg/mL (≈ 7.05 µM) and an MIC (Serratia marcescens SE3; SE3, Table 1, read-out: Minimum Inhibitory Concentration) of 16 µg/mL (≈ 28.2 µM). It also gave an MIC (Serratia marcescens SE3; [38]) of 4 µg/mL (≈ 7.05 µM), an MIC [33] of 16 µg/mL (≈ 28.2 µM) and an MIC (Serratia marcescens X99; X99, Table 1, read-out: Minimum Inhibitory Concentration) of 8 µg/mL (≈ 14.1 µM). It also gave an MIC (Serratia marcescens X99; [39]) of 2 µg/mL (≈ 3.52 µM), an MIC [34] of 4 µg/mL (≈ 7.05 µM) and an MIC [35] of 16 µg/mL (≈ 28.2 µM).
`CN[C@@H]1[C@@H](O[C@H]2O[C@H](CO)[C@@H](NCc3ccccc3)[C@H](O)[C@H]2O)O[C@H]2C[C@@H](N)[C@@H](O[C@H]3[C@H](O)[C@@H](O)[C@H](N)C[C@@H]3N)O[C@@H]2[C@@H]1O` [Test Compound 3, 4"-N-Benzylapramycin] was tested, and the MIC (Serratia marcescens SE2) was 16 µg/mL (≈ 25.4 µM), the MIC ([4]; Table II, read-out: Minimum Inhibitory Concentration) was > 128 µg/mL and the MIC [5] was 8 µg/mL (≈ 12.7 µM). For the same molecule, the MIC [10, 37] was 128 µg/mL (≈ 203 µM), the MIC [36] was > 128 µg/mL and the MIC [12] was 64 µg/mL (≈ 102 µM). For the same molecule, the MIC ([13]; Enterobacter cloacae, EB24, read-out: Minimum Inhibitory Concentration) was 4 µg/mL (≈ 6.35 µM), the MIC [15] was > 128 µg/mL and the MIC [16] was > 128 µg/mL. The MIC [18] was 8 µg/mL (≈ 12.7 µM), the MIC ([21]; Table II, Enterobacter aerogenes EB6, agar dilution, read-out: Minimum Inhibitory Concentration) was 8 µg/mL (≈ 12.7 µM) and the MIC (Proteus morganii PR1) was 32 µg/mL (≈ 50.8 µM). The MIC [23] was > 128 µg/mL, the MIC (Proteus rettgeri PR2) was > 128 µg/mL and the MIC [27] was 128 µg/mL (≈ 203 µM). It also gave an MIC [28] of 128 µg/mL (≈ 203 µM), an MIC (Proteus inconstans PV25) of 64 µg/mL (≈ 102 µM) and an MIC (Serratia marcescens SE3; [38]) of 8 µg/mL (≈ 12.7 µM). The MIC (Serratia marcescens X99; [39]) was 4 µg/mL (≈ 6.35 µM).
